From paper PMC4476818, “Characterization of uronate dehydrogenases catalysing the initial step in an oxidative pathway” (Microbial Biotechnology, 2015)
Where two headings read alike, the source gives them in different places.

Experiments:
[1] = tested on: T1, UdhOg; test: NADH formation at […] nm; format: biochemical, Oceanicola granulosus
T1 construct: gene udh; N-terminal His-tag, tag kept; wild-type gene from genomic DNA, E. coli BL21(DE3); start MKKIVLT (from primer)

[2] = tested on: T2, UdhFp; test: NADH formation at […] nm; format: biochemical, Fulvimarina pelagi
T2 construct: gene udh; N-terminal His-tag, tag kept; synthetic codon-optimized gene, E. coli BL21(DE3); start MLEKLLI (from primer)

[3] = substrate: NC(=O)c1ccc[n+]([C@@H]2O[C@H](COP(=O)(O)OP(=O)(O)OC[C@H]3O[C@@H](n4cnc5c(N)ncnc54)[C@H](O)[C@@H]3O)[C@@H](O)[C@H]2O)c1; test: purified protein; format: biochemical, Agrobacterium fabrum; conditions: 50 mM potassium phosphate pH 8.0, 37°C, uronic acid co-substrate, varied: cofactor
[4] = substrate: NC(=O)c1ccc[n+]([C@@H]2O[C@H](COP(=O)(O)OP(=O)(O)OC[C@H]3O[C@@H](n4cnc5c(N)ncnc54)[C@H](O)[C@@H]3O)[C@@H](O)[C@H]2O)c1; test: purified protein; format: biochemical, Pseudomonas syringae group genomosp. 3; conditions: 50 mM potassium phosphate pH 8.0, 37°C, uronic acid co-substrate, varied: cofactor
[5] = 50 mM Tris-HCl pH 8.0, 37°C, co-substrate NAD+, read-out: Tris-Buffer / Kinetic parameters / Km
[6] = 50 mM potassium phosphate pH 8.0, 37°C, uronic acid co-substrate, read-out: KPi-Buffer / Kinetic parameters / Km

Work on `O=C(O)[C@H]1OC(O)[C@H](O)[C@@H](O)[C@H]1O` (stereo partly shown) [Galacturonate] yielded a Km [1, 5] of 55 ± 3 mM and a Km [2, 5] of 20 µM.

With `O=C(O)[C@H]1OC(O)[C@H](O)[C@@H](O)[C@@H]1O` (stereo partly shown) [Glucuronate] the Km [1, 5] was 64 ± 3 mM and the Km [2, 5] was 200 ± 30 µM.

`O=C(O)[C@H]1OC(O)[C@@H](O)[C@@H](O)[C@@H]1O` (stereo partly shown) [Mannuronate] showed a Km [2, 5] of 6400 ± 130 µM.

With `NC(=O)c1ccc[n+]([C@@H]2O[C@H](COP(=O)(O)OP(=O)(O)OC[C@H]3O[C@@H](n4cnc5c(N)ncnc54)[C@H](O)[C@@H]3O)[C@@H](O)[C@H]2O)c1` [NAD^+] the Km [1, 6] was 0.4 ± 0.1 mM and the Km [2, 6] was 200 ± 20 µM.

B1: UdhAt (Agrobacterium fabrum str. C58) (protein)
chain: MKRLLVTGAAGQLGRVMRERLAPMAEILRLADLSPLDPAGPNEECVQCDLADANAVNAMVAGCDGIVHLGGISVEKPFEQILQGNIIGLYNLYEAARAHGQPRIVFASSNHTIGYYPQTERLGPDVPARPDGLYGVSKCFGENLARMYFDKFGQETALVRIGSCTPEPNNYRMLSTWFSHDDFVSLIEAVFRAPVLGCPVVWGASANDAGWWDNSHLGFLGWKPKDNAEAFRRHITETTPPPDPNDALVRFQGGTFVDNPIFKQS
notes: N-terminal His-tag, tag kept; synthetic codon-optimized gene, E. coli BL21(DE3)
In the case of B1, the Km [3] is reported as 0.1 ± 0.0 mM, the kcat [3] is reported as 144 ± 14 s⁻¹ and the kcat/Km [3] is reported as 1.08e+06 M⁻¹ s⁻¹.

B2: UdhPs (Pseudomonas syringae pv. tomato str. DC3000) (protein)
chain: MASAHTTQTPFNRLLLTGAAGGLGKVLRETLRPYSHILRLSDIAEMAPAVGDHEEVQVCDLADKDAVHRLVEGVDAILHFGGVSVERPFEEILGANICGVFHIYEAARRHGVKRVIFASSNHVIGFYKQNETIDAHSPRRPDSYYGLSKSYGEDMASFYFDRYGIETVSIRIGSSFPEPQNRRMMSTWLSFDDLTRLLERALYTPDVGHTVVYGVSDNKTVWWDNRFASKLDYAPKDSSEVFRAKVDAQPMPADDDPAMVYQGGAFVASGPFGDK
notes: as for B1
B2 gave a Km [4] of 0.20 ± 0.03 mM, a kcat [4] of 215 ± 12 s⁻¹ and a kcat/Km [4] of 1.26e+06 M⁻¹ s⁻¹.
